Test results from patent US20240109885A1, “2,3-DIHYDRO-1H-PYRROLO[3,2-B]PYRIDINE DERIVATIVE, PREPARATION METHOD THEREFOR, AND APPLICATION THEREOF” (Abbisko Therapeutics Co., Ltd, priority 2020, published 2024).

Key:
[1] = biological target: Ba/F3 EGFR-D770-N771ins_SVD (Homo sapiens, UniProt P00533, DUP768-770, cells depend on it); assay: Cell proliferation assay (CellTiter-Glo), Ba/F3 EGFR-D770-N771ins_SVD cells; format: cell-based; details: 72 hrs, CTG assay, * = average of multiple measurements, read-out: Ba/F3 EGFR-D770-N771ins_SVD (nM), IC50 of cell proliferation
Experimental: (§1) I. Cell proliferation assay (i) Reagents and consumables • Fetal bovine serum (FBS) (GBICO, Cat #10099-141); • CellTiter-Glo® Luminescent Cell Viability Assay Kit (Promega, Cat #G7572); • Black transparent flat-bottomed 96-well plate (Corning®, Cat #3603).
(§2) • SpectraMax Multi-Label Microplate Detector MD, 2104-0010A; • CO2 incubator, Thermo Scientific 3100 Series; • Biosafety cabinet, Thermo Scientific, 1300 Series type A2; • Inverted microscope, Olympus, CKX41SF; • Siemens refrigerator KK25E76TI. (iii) Cell lines and culture conditions
(§3) (iv) Experimental procedures 1. Cell culture and seeding: • (1) Cells in the logarithmic growth phase were harvested, and counted using a platelet counter. Cell viability was detected by the trypan blue exclusion assay to ensure that the cell viability was above 90%. • (2) The cell concentration was adjusted to achieve the final density; and 90 μL of the cell suspension was added to the 96-well plate. • (3) The cells were incubated in the 96-well plate overnight at 37° C. in the presence of 5% CO2 with 95% humidity. 2. TO benchmark data: • (1) 10 μL of PBS was added to each well of the TO flat plate containing the cells. • (2) The CTG reagent was thawed, and the cell plate was equilibrated to room temperature for 30 min. • (3) An equal volume of CTG solution was added to each well. • (4) The cells were shaken for 5 min on an orbital shaker for lysis. • (5) The cell plate was left at room temperature for 20 min to stabilize luminescent signals. • (6) The values of TO luminescent signals were read. 3. Compound dilution and addition • (1) According to the compound information table, a corresponding volume of DMSO was added to the corresponding compound powder to prepare a 10 mM stock solution. • (2) Compound solutions diluted at 1000 fold and 3.16 fold were prepared. • (3) The compound solution diluted at 1000 fold was diluted at 100 fold with PBS, to prepare the compound solutions at 10 fold in 9 concentrations, with the maximum concentration of […]; and the compound solution was diluted at 3.16 fold. 10 μL of medicament solution was added to each well of the seeded 96-well plate. Three replicate wells were provided for each concentration of the compound, and the final concentration of DMSO was 0.1%. • (4) Cells were placed in the 96-well plate containing the medicament and subsequently cultured for 72 hrs at 37° C. in the presence of 5% CO2 with 95% humidity, and then, CTG assay was conducted. 4. Reading of luminescent signals • (1) The CTG reagent was thawed, and the cell plate was equilibrated to room temperature for 30 min. • (2) An equal volume of CTG solution was added to each well. • (3) The cells were shaken for 5 min on an orbital shaker for lysis.
(§4) (4) The cell plate was left at room temperature for 20 min to stabilize the luminescent signals. • (5) Luminescent values were read. Data processing
(§5) The data were analyzed using software GraphPad Prism 7.0, and fitted by the nonlinear S-curve regression to obtain a dose-effect curve, based on which the IC50 value (unit: nM) was calculated, with the specific test results shown in Table 1.
(§6) Cell viability (%)=(Lum test medicament-Lum culture medium control)/(Lum cell control-Lum culture medium control)×100%.

[2] = biological target: Ba/F3 EGFR-V769_D770insASV (Homo sapiens, UniProt P00533, DUP767-769, cells depend on it); assay: Cell proliferation assay (CellTiter-Glo), Ba/F3 EGFR-V769_D770insASV cells; format: cell-based; details: 72 hrs, CTG assay, * = average of multiple measurements, read-out: Ba/F3 EGFR-V769_D770insASV (nM), IC50 of cell proliferation
Experimental: as §1, §2, §3, §4, §5, §6

Ba/F3 EGFR-V769_D770insASV, sequence (P00533 with tags, fused parts or gaps DUP767-769): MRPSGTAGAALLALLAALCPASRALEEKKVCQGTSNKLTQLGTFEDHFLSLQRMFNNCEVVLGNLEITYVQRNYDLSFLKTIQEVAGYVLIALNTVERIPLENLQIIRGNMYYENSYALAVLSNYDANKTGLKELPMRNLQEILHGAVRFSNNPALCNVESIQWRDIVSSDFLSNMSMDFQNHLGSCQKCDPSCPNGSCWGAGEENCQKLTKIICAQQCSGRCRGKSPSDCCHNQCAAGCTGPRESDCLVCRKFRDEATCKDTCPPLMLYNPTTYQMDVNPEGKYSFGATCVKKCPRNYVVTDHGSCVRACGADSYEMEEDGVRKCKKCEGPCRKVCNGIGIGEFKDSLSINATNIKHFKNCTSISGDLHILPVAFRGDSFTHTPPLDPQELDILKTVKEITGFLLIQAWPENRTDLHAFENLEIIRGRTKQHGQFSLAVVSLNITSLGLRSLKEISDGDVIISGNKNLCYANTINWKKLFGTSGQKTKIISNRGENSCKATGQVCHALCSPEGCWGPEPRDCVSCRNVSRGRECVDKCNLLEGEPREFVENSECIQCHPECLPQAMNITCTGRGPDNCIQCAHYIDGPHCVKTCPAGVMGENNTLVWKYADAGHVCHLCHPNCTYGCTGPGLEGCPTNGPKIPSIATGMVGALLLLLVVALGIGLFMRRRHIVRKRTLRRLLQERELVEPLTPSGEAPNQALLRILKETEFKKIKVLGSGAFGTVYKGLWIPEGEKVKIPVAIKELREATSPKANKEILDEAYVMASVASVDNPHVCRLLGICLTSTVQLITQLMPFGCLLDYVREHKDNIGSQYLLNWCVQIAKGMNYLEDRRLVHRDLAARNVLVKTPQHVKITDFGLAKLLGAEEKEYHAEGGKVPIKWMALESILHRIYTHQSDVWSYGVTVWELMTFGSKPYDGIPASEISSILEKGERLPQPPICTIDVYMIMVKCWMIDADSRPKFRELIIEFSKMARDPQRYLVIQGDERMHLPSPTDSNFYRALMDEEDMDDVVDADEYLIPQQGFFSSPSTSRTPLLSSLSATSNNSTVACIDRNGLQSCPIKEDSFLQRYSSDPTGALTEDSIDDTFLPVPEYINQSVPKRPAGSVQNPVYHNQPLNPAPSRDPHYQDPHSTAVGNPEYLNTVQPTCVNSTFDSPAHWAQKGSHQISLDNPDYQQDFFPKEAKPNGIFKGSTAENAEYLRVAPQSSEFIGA
Ba/F3 EGFR-D770-N771ins_SVD, sequence (P00533 with tags, fused parts or gaps DUP768-770): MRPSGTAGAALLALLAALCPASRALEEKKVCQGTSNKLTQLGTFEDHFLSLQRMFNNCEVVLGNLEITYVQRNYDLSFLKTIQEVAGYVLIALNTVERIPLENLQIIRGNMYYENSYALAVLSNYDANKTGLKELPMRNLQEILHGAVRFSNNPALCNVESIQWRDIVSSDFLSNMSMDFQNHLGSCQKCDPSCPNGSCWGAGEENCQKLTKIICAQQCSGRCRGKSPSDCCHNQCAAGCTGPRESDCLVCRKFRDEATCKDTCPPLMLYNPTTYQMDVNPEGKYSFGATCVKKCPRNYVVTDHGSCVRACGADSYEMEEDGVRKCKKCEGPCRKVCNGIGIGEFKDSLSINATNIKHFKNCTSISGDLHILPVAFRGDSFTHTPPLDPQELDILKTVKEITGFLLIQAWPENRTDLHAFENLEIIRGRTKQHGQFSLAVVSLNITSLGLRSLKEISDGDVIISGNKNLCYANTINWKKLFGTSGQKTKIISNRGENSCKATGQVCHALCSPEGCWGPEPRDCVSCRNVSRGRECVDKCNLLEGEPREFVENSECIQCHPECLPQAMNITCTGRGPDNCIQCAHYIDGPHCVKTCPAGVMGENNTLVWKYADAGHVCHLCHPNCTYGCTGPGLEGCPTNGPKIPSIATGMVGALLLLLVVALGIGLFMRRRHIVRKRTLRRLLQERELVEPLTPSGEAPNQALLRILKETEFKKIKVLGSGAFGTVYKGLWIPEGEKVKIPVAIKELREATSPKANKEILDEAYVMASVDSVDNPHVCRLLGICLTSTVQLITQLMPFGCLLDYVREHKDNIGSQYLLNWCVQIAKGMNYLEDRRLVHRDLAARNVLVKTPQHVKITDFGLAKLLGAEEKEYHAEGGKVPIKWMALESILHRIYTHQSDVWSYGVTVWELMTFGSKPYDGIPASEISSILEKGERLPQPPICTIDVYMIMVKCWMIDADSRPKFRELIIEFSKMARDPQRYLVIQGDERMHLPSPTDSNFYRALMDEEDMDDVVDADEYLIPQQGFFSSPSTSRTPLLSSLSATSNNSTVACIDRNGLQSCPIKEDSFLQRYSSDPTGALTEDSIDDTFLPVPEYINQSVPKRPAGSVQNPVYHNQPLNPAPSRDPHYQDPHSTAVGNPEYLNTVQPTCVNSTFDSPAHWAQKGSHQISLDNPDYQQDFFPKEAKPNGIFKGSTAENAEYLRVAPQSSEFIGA

C=CC(=O)Nc1cc(Nc2nccc(N3CC4(CCN(C)C4)c4nc(C)ccc43)n2)c(OC)cc1N(C)CCN(C)C (centres unmarked) [Example 71, N-(2-((2-(dimethylamino)ethyl) (methyl)amino)-5-((4-(1,5′-dimethyl-spiro[pyrrolidin-3,3′-pyrrolo[3,2-b]pyridin]-1′(2′H)-yl)pyrimidin-2-yl)amino)-4-methoxyphenyl) acrylamide]
GI50 [1]: 372 nM

C=CC(=O)Nc1cc(Nc2nccc(N3CC4(CN(C)C4)c4nc(C)ccc43)n2)c(OC)cc1N(C)CCN(C)C [Example 73, N-(2-((2-(dimethylamino)ethyl) (methyl)amino)-5-((4-(1,5′-dimethyl-spiro[azetidine-3,3′-pyrrolo[3,2-b]pyridin]-1′(2′H)-yl)pyrimidin-2-yl)amino)-4-methoxyphenyl) acrylamide]
GI50 [1]: 811 nM

C=CC(=O)Nc1cc(Nc2nccc(N3CC(C)(C)c4nc(-c5cn[nH]c5)ccc43)n2)c(OC)cc1N(C)CCN(C)C [Example 58, N-(5-((4-(3,3-dimethyl-5-(1H-pyrazol-4-yl)-2,3-dihydro-1H-pyrrolo[3,2-b]pyridin-1-yl)pyrimidin-2-yl)amino)-2-((2-(dimethylamino)ethyl)(methyl)amino)-4-methoxyphenyl)acrylamide]
GI50 [1]: 68.2 nM

C=CC(=O)Nc1cc(Nc2nccc(N3CC(C)(C)c4nc(C)c(C)cc43)n2)c(OC(C)C)cc1N(C)CCN(C)C [Example 43, N-(2-((2-(dimethylamino)ethyl) (methyl)amino)-4-isopropoxy-5-((4-(3,3,5,6-tetramethyl-2,3-dihydro-1H-pyrrolo[3,2-b]pyridin-1-yl)pyrimidin-2-yl)amino)phenyl)acrylamide]
GI50 [1]: 38.5 nM

C=CC(=O)Nc1cc(Nc2cc(N3CC(C)(C)c4nc(C5CC5)ccc43)ncn2)c(OC)nc1N(C)CCN(C)C [Example 70, N-(5-((6-(5-cyclopropyl-3,3-dimethyl-2,3-dihydro-1H-pyrrolo[3,2-b]pyridin-1-yl)pyrimidin-4-yl)amino)-2-((2-(dimethylamino)ethyl) (methyl)amino)-6-methoxypyridin-3-yl)acrylamide]
GI50 [1]: 121 nM

C=CC(=O)Nc1cc(Nc2nccc(N3CC(C)(C)c4nc5c(cc43)CCC5)n2)c(OC)cc1N(C)CCN(C)C [Example 23, N-(5-((4-(3,3-dimethyl-3,5,6,7-tetrahydrocyclopenta[b]pyrrolo[2,3-e]pyridin-1(2H)-yl)pyrimidin-2-yl)amino)-2-((2-(dimethylamino)ethyl)(methyl)amino)-4-methoxy-phenyl)acrylamide]
GI50 [1]: 13.8 nM
GI50 [2]: 26.6 nM

C=CC(=O)Nc1cc(Nc2nccc(N3CC(C)(C)c4nc(C)c(C)cc43)n2)c(OCC)cc1N(C)CCN(C)C [Example 27]
GI50 [1]: 31.5 nM
GI50 [2]: 68.8 nM

C=CC(=O)Nc1cc(Nc2nccc(N3CC4(CCCC4)c4nc(C)ccc43)n2)c(OCC(F)(F)F)cc1N(C)CCN(C)C [Example 40]
GI50 [1]: 37 nM

C=CC(=O)Nc1cc(Nc2cc(N3CC(C)(C)c4nc5c(cc43)CCC5)ncn2)c(OC)cc1N(C)CCN(C)C [Example 26, N-(5-((6-(3,3-dimethyl-3,5,6,7-tetrahydrocyclopenta[b]pyrrolo[2,3-e]pyridin-1(2H)-yl)pyrimidin-4-yl)amino)-2-((2-(dimethylamino)ethyl)(methyl)amino)-4-methoxy-phenyl)acrylamide]
GI50 [1]: 22.9 nM
GI50 [2]: 76.1 nM

C=CC(=O)Nc1cc(Nc2cc(N3CC(C)(C)c4nc(C)c(C)cc43)ncn2)c(OCC)cc1N(C)CCN(C)C [Example 35, N-(2-((2-(dimethylamino)ethyl) (methyl)amino)-4-ethoxy-5-((6-(3,3,5,6-tetramethyl-2,3-dihydro-1H-pyrrolo[3,2-b]pyridin-1-yl)pyrimidin-4-yl)amino)phenyl)acrylamide]
GI50 [1]: 40.1 nM
GI50 [2]: 94.8 nM

C=CC(=O)Nc1cc(Nc2nccc(N3CC4(CCOCC4)c4nc(C)ccc43)n2)c(OC)cc1N(C)CCN(C)C [Example 65]
GI50 [1]: 108 nM

C=CC(=O)Nc1cc(Nc2nccc(N3CC(C)(C)c4ncc(-c5ccccc5F)cc43)n2)c(OC)cc1N(C)CCN(C)C [Example 19, N-(2-((2-(dimethylamino)ethyl) (methyl)amino)-5-((4-(6-(2-fluoro-phenyl)-3,3-dimethyl-2,3-dihydro-1H-pyrrolo[3,2-b]pyridin-1-yl)pyrimidin-2-yl)amino)-4-methoxy-phenyl)acrylamide]
GI50 [1]: 41.6 nM
GI50 [2]: 142 nM

COc1cc(N(C)CCN(C)C)c(N)cc1Nc1nccc(N2CC(C)(C)c3ncc(-c4c(F)cccc4F)cc32)n1 [Example 18, N^4-(4-(6-(2,6-difluorophenyl)-3,3-dimethyl-2,3-dihydro-1H-pyrrolo [3,2-b]pyridin-1-yl)pyrimidin-2-yl)-N^1-(2-(dimethylamino)ethyl)-5-methoxy-N^1-methylbenzene-1,2,4-triamine]
GI50 [1]: 60 nM
GI50 [2]: 142 nM

C=CC(=O)Nc1cc(Nc2ncnc(N3CC(C)(C)c4nc(C)ccc43)n2)c(OC(C)C)cc1N(C)CCN(C)C [Example 37, N-(2-((2-(dimethylamino)ethyl) (methyl)amino)-4-isopropoxy-5-((4-(3,3,5-trimethyl-2,3-dihydro-1H-pyrrolo[3,2-b]pyridin-1-yl)-1,3,5-triazin-2-yl)amino)phenyl)acrylamide]
GI50 [1]: 92.2 nM
GI50 [2]: 159 nM

C=CC(=O)Nc1cc(Nc2cc(N3CC(C)(C)c4nc(-c5cnn(C)c5)ccc43)ccn2)c(OC)cc1N(C)CCN(C)C [Example 67, N-(5-((4-(3,3-dimethyl-5-(1-methyl-1H-pyrazol-4-yl)-2,3-dihydro-1H-pyrrolo[3,2-b]pyridin-1-yl)pyridin-2-yl)amino)-2-((2-(dimethyl-amino)ethyl)(methyl)amino)-4-methoxyphenyl)acrylamide]
GI50 [1]: 108 nM

C=CC(=O)Nc1cc(Nc2cc(N3CC(C)(C)c4nc(-c5cnn(C)c5)ccc43)ncn2)c(OC)cc1N(C)CCN(C)C [Example 66, N-(5-((6-(3,3-dimethyl-5-(1-methyl-1H-pyrazol-4-yl)-2,3-dihydro-1H-pyrrolo[3,2-b]pyridin-1-yl)pyrimidin-4-yl)amino)-2-((2-(dimethylamino)ethyl)(methyl)amino)-4-methoxyphenyl)acrylamide]
GI50 [1]: 89.1 nM

C=CC(=O)Nc1cc(Nc2ncnc(N3CC4(CCN(C)C4)c4nc(C)ccc43)n2)c(OC)cc1N(C)CCN(C)C (centres unmarked) [Example 72, N-(2-((2-(dimethylamino)ethyl) (methyl)amino)-5-((4-(1,5′-dimethyl-spiro[pyrrolidin-3,3′-pyrrolo[3,2-b]pyridin]-1′(2′H)-yl)-1,3,5-triazin-2-yl)amino)-4-methoxyphenyl) acrylamide]
GI50 [1]: 298 nM

C=CC(=O)Nc1cc(Nc2ncnc(N3CC(C)(C)c4nc(Br)ccc43)n2)c(OC)cc1N(C)CCN(C)C [Example 41, N-(5-((4-(5-bromo-3,3-dimethyl-2,3-dihydro-1H-pyrrolo[3,2-b]pyridin-1-yl)-1,3,5-triazin-2-yl)amino)-2-((2-(dimethylamino)ethyl) (methyl)amino)-4-methoxyphenyl) acrylamide]
GI50 [1]: 35.5 nM

C=CC(=O)Nc1cc(Nc2nccc(N3CC4(CC(F)(F)C4)c4nc(C)ccc43)n2)c(OC)cc1N(C)CCN(C)C [Example 74, N-(5-((4-(3,3-difluoro-5′-methyl-spiro[cyclobutane-1,3′-pyrrolo[3,2-b]pyridin]-1′(2′H)-yl)pyrimidin-2-yl)amino)-2-((2-(dimethylamino)ethyl)(methyl)amino)-4-methoxy-phenyl)acrylamide]
GI50 [1]: 83.6 nM
